Assay results reported in PMC10778758, “Dithioethanol (DTE)-Conjugated Deoxyribose Cyclic Dinucleotide Prodrugs (DTE-dCDNs) as STING Agonist” (International Journal of Molecular Sciences, 2023).

Experiment: Release of parent dCDN from prodrug 9 in cell lysates (HPLC)
Format: in vitro ADME
Conditions: 100 μM prodrug, 37 °C
Experimental: To analyze the reduction dependency, we performed the in vitro cleavage test by incubating prodrug 9 with a reductive substance such as GSH or DTT and cell lysates at 37 °C and then determined the change with HPLC. […] As the reductive substance or cell lysates were added, the peak for prodrug 9 disappeared and the new peaks at 1.2 min appeared in 0.5 h and 2 h, respectively. The released parent dCDN was also confirmed with 3′,3′-c-di-dAMP through UPLC-MS (Figure S1).
Prodrug 9 release parent drug initiated by cell lysates, DTT, and GSH. HEK 293T cells were plated in a 6-well plate at a density of 10^6 cell per well. After 48 h, the culture media was removed and washed with 500 μL PBS buffer. Cells were collected into 1.5 mL microtubes. An amount of 200 μL weak RIPA lysis buffer containing 1 mM protease inhibitor PMSF (LEAGENE, Trenton, NJ, USA) was added to each tube for 30 min. After centrifugation at 13,000 rpm for 10 min, the supernatant (180 μL) was transferred into a new tube. An amount of 100 μM prodrug 9 was added into the cell lysate (60 μL) in an air-bath incubator at 37 °C. […]
Figure 3 Parent dCDNs release in GSH, DTT (a), and cell lysates (b). An amount of 100 μM prodrug 9 was added into the 10 mM GSH, 10 mM DTT, and cell lysates for various times (0.5 h and 2 h) at 37 °C and analyzed with HPLC (Agilent 1260, Santa Clara, CA, USA).

time at which prodrug peak disappeared and parent dCDN peak appeared: 2 h
Compound: Nc1ncnc2c1ncn2C1CC2OP(=O)(OCCSSc3ccccn3)OCC3OC(n4cnc5c(N)ncnc54)CC3OP(=O)(OCCSSc3ccccn3)OCC2O1 (stereo not shown) [prodrug 9]
